According to ChEMBL document CHEMBL3885861, “Open TG-GATES”:

Species on record: Rattus norvegicus
Assay: Open TG-GATES - Regimen: Daily Repeat
Assay type: toxicity, organism-based, Sprague-Dawley
Parameters: regimen Daily Repeat, gender Male, age 6 weeks
Conditions: in vivo, po, 100 mg/kg, route gavage, dose level High; for APTT / Bas / Eos / Fbg / Hb / Ht / Lym / MCH / MCHC / MCV / Mono / Neu / PT / Plat / RBC / Ret / WBC: tissue Blood
[1] = 72 h, tissue Kidney, time 3 day
[2] = 72 h, tissue Plasma, time 3 day

Work on `OCCOCCN1CCN(C(c2ccccc2)c2ccc(Cl)cc2)CC1` (stereo unspecified) [HYDROXYZINE] yielded a TERMINAL_BW (72 h, time 3 day) of 215.1 g, an APTT (72 h, time 3 day) of 17.1 s and a Bas (72 h, time 3 day) of 0%. It also gave an Eos (72 h, time 3 day) of 0.8%, a Fbg (72 h, time 3 day) of 297 mg/dL and a Hb (72 h, time 3 day) of 13.6 g/dL. It also gave a Ht (72 h, time 3 day) of 40.5%, a Lym (72 h, time 3 day) of 73.4% and an MCH (72 h, time 3 day) of 20.9 pg. For the same compound, the MCHC (72 h, time 3 day) was 33.5%, the MCV (72 h, time 3 day) was 62.5 fL and the Mono (72 h, time 3 day) was 3.2%. It also gave a Neu (72 h, time 3 day) of 21.8%, a PT (72 h, time 3 day) of 15.7 s and a Plat (72 h, time 3 day) of 128.8 x10_4/uL. For the same compound, the RBC (72 h, time 3 day) was 648.2 x10_4/ul, the Ret (72 h, time 3 day) was 5.3% and the WBC (72 h, time 3 day) was 97.2 x10_2/uL. It also gave a KIDNEY_L [1] of 1 g, a KIDNEY_R [1] of 1 g and a KIDNEY_TOTAL [1] of 2 g. It also gave an LIVER (72 h, tissue Liver, time 3 day) of 11.2 g, an A/G [2] of 0.8 and an ALP [2] of 2293.8 IU/L. For the same compound, the ALT [2] was 42.6 IU/L, the AST [2] was 72.8 IU/L and the BUN [2] was 17.6 mg/dL. It also gave a CRE [2] of 0.2 mg/dL, a Ca [2] of 10.9 mg/dL and a Cl [2] of 104.8 meq/L. It also gave a DBIL [2] of 0.016 mg/dL, a GLC [2] of 170.8 mg/dL and an IP [2] of 7.8 mg/dL. For the same compound, the K [2] was 3.9 meq/L, the LDH [2] was 56.2 IU/L and the Na [2] was 142.6 meq/L. The PL [2] was 126.2 mg/dL, the RALB [2] was 2.6 g/dL and the TBIL [2] was 0.05 mg/dL. The TC [2] was 67.8 mg/dL, the TG [2] was 62.6 mg/dL and the TP [2] was 5.6 g/dL. It also gave a gamma-GTP [2] of 1 IU/L, a TERMINAL_BW ([…], time 7 day) of 246 g and a TERMINAL_BW ([…], time 14 day) of 300.3 g. For the same compound, the TERMINAL_BW ([…], time 28 day) was 378.6 g, the APTT ([…], time 7 day) was 18 s and the Bas ([…], time 7 day) was 0%. The Eos ([…], time 7 day) was 0.8%, the Fbg ([…], time 7 day) was 297 mg/dL and the Hb ([…], time 7 day) was 13.6 g/dL. For the same compound, the Ht ([…], time 7 day) was 40.3%, the Lym ([…], time 7 day) was 81% and the MCH ([…], time 7 day) was 21 pg. It also gave an MCHC ([…], time 7 day) of 33.7%, an MCV ([…], time 7 day) of 62.3 fL and a Mono ([…], time 7 day) of 2.2%. For the same compound, the Neu ([…], time 7 day) was 15.4%, the PT ([…], time 7 day) was 15.5 s and the Plat ([…], time 7 day) was 109.3 x10_4/uL. It also gave an RBC ([…], time 7 day) of 647.2 x10_4/ul, a Ret ([…], time 7 day) of 4.6% and a WBC ([…], time 7 day) of 79.7 x10_2/uL. For the same compound, the APTT ([…], time 14 day) was 18.5 s, the Bas ([…], time 14 day) was 0.4% and the Eos ([…], time 14 day) was 1%. It also gave a Fbg ([…], time 14 day) of 300.4 mg/dL, a Hb ([…], time 14 day) of 13.7 g/dL and a Ht ([…], time 14 day) of 40.2%. For the same compound, the Lym ([…], time 14 day) was 78%, the MCH ([…], time 14 day) was 20 pg and the MCHC ([…], time 14 day) was 34.2%. The MCV ([…], time 14 day) was 58.5 fL, the Mono ([…], time 14 day) was 3% and the Neu ([…], time 14 day) was 16.6%. It also gave a PT ([…], time 14 day) of 16.2 s, a Plat ([…], time 14 day) of 124.9 x10_4/uL and an RBC ([…], time 14 day) of 686.4 x10_4/ul. It also gave a Ret ([…], time 14 day) of 5.2%, a WBC ([…], time 14 day) of 128.4 x10_2/uL and an APTT ([…], time 28 day) of 22.4 s. It also gave a Bas ([…], time 28 day) of 0.4%, an Eos ([…], time 28 day) of 0.8% and a Fbg ([…], time 28 day) of 290.2 mg/dL. It also gave a Hb ([…], time 28 day) of 14.7 g/dL and a Ht ([…], time 28 day) of 42.3%.
